Experimental findings from patent US11135233B2, “Methods for preventing or mitigating acute allergic responses using human milk oligosaccharides” (Abbott Laboratories, priority 2013, dated 2021) are described below.

Assay [1] concerns skin mast cell response in sensitized mice. The assay is described as follows: Passive cutaneous anaphylaxis (PCA), skin mast cell response, Evans blue dye in ear pinnae. The assay is classed as in vivo. To be noted: oral gavage 1 mg per mouse daily for 5 days; anti-DNP IgE i.d., DNP-HSA i.v.; FIG. 3. As to the method:
The ability of HMOs to attenuate skin mast cell responses, as measured by the PCA response, was determined in sensitized mice fed 2′-FL, phosphate buffered saline (PBS), lactose, or 6′-SL by detecting the level of dye in ear pinnae indicative of the PCA response.
Mice were treated with 2′-FL, 6′-SL, lactose or PBS by oral gavage (1 mg per mouse) daily for 5 days. On day 4 mice were sensitized by intradermal (i.d.) injection of anti-DNP IgE (10 ng in […] saline) into the right ear pinnae while the left ear was injected with saline alone. Twenty-four hours later, DNP-HSA (10 mg/kg) together with Evans blue (100 mg/kg) was injected intravenously (i.v.). 1 hour following i.v. injection mice were euthanized and ear pinnae collected. Evans blue dye was extracted by incubating the skin samples in DMSO for 24 h at 37° C., and measuring the optical density (O.D.) at 650 nm. Data is presented as the difference in O.D. between the control (left) and sensitized (right) ear.

For assay [2], the system named is bone marrow mast cells (BMMC). As to the kind of experiment: In vitro mast cell degranulation (β-hexosaminidase release) in sensitized BMMC exposed to HMO. The assay is classed as cell-based, Balb/c mice. To be noted: anti-DNP IgE sensitized BMMC, HMO at a range of concentrations 30 min prior to DNP-HSA activation; FIG. 1A/1B. On the procedure:
The ability of HMOs to attenuate mast cell degranulation was tested by exposing sensitized bone marrow mast cells (BMMC) to either 2′-FL or 6′-SL.
BMMC from female Balb/c mice were obtained by culturing the bone marrow cells in enriched RPMI-1640 medium with 10% pokeweed mitogen-stimulated spleen as a source of mast cell growth factors for 3 weeks. The cells were kept at a concentration of 0.2×10^5 cells/ml in a 5% CO2, 37° C. environment, where the medium was changed weekly. BMMC were used for experiments after 3-4 weeks of culture (>95% mast cells). BMMC were sensitized with 1 ug/ml monoclonal anti-dinitrophenyl (DNP) IgE clone and seeded into 96-well plates at a final concentration of 1×10^6 cells/ml. […] Cell supernatants were harvested 30 min after DNP-HSA stimulation and stored at −20° C. until analyzed. […] Results are expressed as a percentage of total β-hexosaminidase. […]
This assay was conducted to assess in-vitro antigen-induced degranulation of mast cells. […] The release of β-hexosaminidase from mast cells was measured from the supernatant. […] The reaction was stopped with 100 μl citrate buffer pH 4.5 and read by using CytoFluor 2350 fluorescent spectrophotometer at 450 nm (excitation 356 nm). B-hexosaminidase release was presented as a percentage of the total B-hexosaminidase release determined by cell lysis with 1×triton-X.

Assay [3] relates to OVA-sensitized mice. As to the kind of experiment: OVA-induced food allergy model: diarrhea score. The assay is classed as in vivo. To be noted: 200 ul of 5 mg/ml in PBS daily oral gavage day 27 to 49; versus untreated or lactose treated OVA-sensitized mice; FIG. 4A/4B. As to the method: (§1) The ability of HMOs to attenuate the gastrointestinal mast cell response was determined by measuring the amount of diarrhea, change in body temperature, and change in mouse mast cell protease-1 (mMCP-1) levels in HMO treated mice relative to untreated and lactose treated control mice.
(§2) The OVA-induced food allergy model was modified from Yamaki and Yoshino (Allergy. 2012; 67:1259-70). Mice were sensitized with 50 μg of OVA (Sigma, St. Louis, Mo.) and 2 mg of alum (Sigma, St. Louis, Mo.) in 200 μl of Phosphate Saline Buffer (PBS) on day 0 and 14. HMO (200 ul of 5 mg/ml in PBS) treatments (2′-FL or 6′-SL) were administrated daily via oral gavage from day 27 to day 49. Mice were orally challenged with 50 μg of OVA every 3 days (Days: 28, 31, 34, 37, 40, 43, 46 and 49). On challenge days treatments were given 1 hour prior to OVA challenge. On day 49, serum, spleen and intestinal samples, were obtained. Non-sensitized PBS challenged mice served as negative controls.
Diarrhea symptoms were scored by visually monitoring mice for 60 minutes after challenge as follows: 0, normal stools; 1, a few wet an unformed stools; 2, a number of wet an unformed stools with moderate perianal staining of the coat; 3, severe, watery stool with severe perianal staining of the coat.

Assay [4] relates to OVA-sensitized mice. The assay is described as follows: OVA-induced food allergy model: rectal temperature after final antigen challenge. The following applies: 200 ul of 5 mg/ml in PBS daily oral gavage; 1 hour following final OVA challenge; versus untreated or lactose treated; FIG. 5A/5B. The assay is classed as in vivo. As to the method:
as §1, §2
Rectal temperature was monitored for 1 hour following the final antigen challenge.

Assay [5] has as its system mouse mast cell protease-1 (mMCP-1). As to the kind of experiment: OVA-induced food allergy model: serum mMCP-1 concentration. The assay is classed as in vivo, mice. The following applies: 200 ul of 5 mg/ml in PBS daily oral gavage; day 49; versus untreated and lactose treated OVA-sensitized controls; FIG. 6. On the procedure: as §1, §2
Following body temperature measurements, mice were euthanized and serum mMCP-1 concentration was determined.

`OC[C@H]1O[C@@H](O[C@H]2[C@H](O)[C@@H](O)C(O)O[C@@H]2CO)[C@H](O)[C@@H](O)[C@H]1O` (stereo partly drawn) [lactose, reference compound]: in assay [1], the “difference in Evans blue dye (O.D. at 650 nm) between control (left) and sensitized (right) ear” value is “greater difference in dye detected”.
As to `CC(=O)N[C@H]1[C@H]([C@H](O)[C@H](O)CO)O[C@@](OC[C@H]2O[C@@H](O[C@H]3[C@H](O)[C@@H](O)[C@H](O)O[C@@H]3CO)[C@H](O)[C@@H](O)[C@H]2O)(C(=O)O)C[C@@H]1O` [6′-SL, 6′-sialyllactose], in assay [2], the “β-hexosaminidase (β-Hex) activity relative to controls (percentage of total β-hexosaminidase)” value is reported as “significant decrease”. Also, the “difference in Evans blue dye (O.D. at 650 nm) between control (left) and sensitized (right) ear” value in assay [1] is “greater difference in dye detected between right and left ears in PBS and lactose-treated mice than in mice treated with 2′-FL or 6′-SL”. The “stool (diarrhea) score” value in the assay on OVA-sensitized mice [3] is given as “but not 6′-SL, Significantly Decreases Diarrhea Symptoms”. The “decline in rectal temperature” value with OVA-sensitized mice [4] was “but not 6′-SL, Mitigates the Decline in Rectal Temperature”. Besides, in assay [5], the “serum mMCP-1 levels” value is on record as “but not 6′-SL, produced a significant decrease”.
